The values below come from patent US20220213156A1, “Peptides for use in therapy or prophylaxis of Herpesviridae-infections” (priority 2019, published 2022).

The subject of one assay is HCMV TB40/E-ΔUL16-eGFP. Nature of the assay: Infection assay: HFF infected with TB40E-ΔUL16-EGFP and treated with HD5-derived peptides (screening, GFP+/DAPI+). Type of assay: cell-based, Human Cytomegalovirus. The settings on record: 75 μM peptide, MOI 0,5, 40 h, compared to other tested peptides. As to the method: For the infection assays, the cells were sown in 96-well plates. Human foreskin fibroblasts (HFF) and ARPE-19 cells (Adult Retinal Pigment Epithelial cell line-19) were seeded with 10 000 cells in 200 μl medium per well, macrophages with 20 000 cells in 200 μl medium per well and THP with 50 000 cells in 200 μl per well. The cells were incubated overnight at 37° C. and 5% CO2 and treated the following day. A medium change to P/S-free medium was performed to avoid interaction between the antibiotics used and the peptide sequences. Afterwards the corresponding peptides were added in different concentrations and immediately afterwards the virus, the final volume was 100 μl per well. The virus of the strain TB40/E-ΔUL16-eGFP was used. TB40-ΔUL16-eGFP is a derivative of the strain TB40, in which the majority of the open reading frame UL16 has been replaced by the open reading frame of eGFP, essentially as described in detail for a homologous mutant of strain AD169 (Tischer et al., “Two-step red-mediated recombination for versatile high-efficiency markerless DNA manipulation in Escherichia coli”, Biotechniques, (2006), 40(2):191-7). […] The required volume of the virus stock was calculated using the titer according to the following formula: […]

Assay [1] deals with TB40-BACKL7-UL32EGFP-UL 100mCherry. Nature of the assay: Attachment of fluorescently tagged viral particles to HFF. Format: cell-based, Human Cytomegalovirus. The settings on record: HFF preincubated with peptide 1 h, 6 h after infection, data not shown. As to the method:
In additional experiments, […] (encoding for pp150) was GFP (green fluorescence protein)-tagged, UL100 (encoding for gM) was mCherry-tagged. This allowed discrimination between enveloped particles, which were EGFP and mCherry-positive and appeared yellow, and non-enveloped particles, which were only EGFP-positive and appeared green.
HFF were preincubated with peptide in the corresponding concentration 1 h at 37° C. and then infected TB40-BACKL7-UL32EGFP-UL 100mCherry. After 6 h of incubation, cells were fixed and stained with DAPI.

Molecules are shown by their SMILES. Residues, ends and D or L forms follow the SMILES beside them.

With `C[C@H](N)C(=O)N[C@H](C(=O)N[C@@H](CS)C(=O)N[C@@H](Cc1ccc(O)cc1)C(=O)N[C@@H](CS)C(=O)N[C@@H](CCCNC(=N)N)C(=O)N[C@H](C(=O)NCC(=O)N[C@@H](CCCNC(=N)N)C(=O)O)[C@@H](C)O)[C@@H](C)O` [HD5 (1-9), ATCYCRTGR] (H-ATCYCRTGR-OH; N-terminus and C-terminus assumed), the “antiviral effect (infection rate GFP+/DAPI+)” value in the assay with HCMV TB40/E-ΔUL16-eGFP is listed as “excellent antiviral effect”. The “attachment of viral particles” value in assay [1] is on record as “blocks the attachment of viral particles”.
